Measurements from patent WO2015077660A1, “Enzyme reactor system enabling enhanced enzymatic digestion, analyte solubility and improved mass spectrometric compatibility” (priority 2013, dated 2014).
Values belong to the compound of their own block, whether it stands above or below them.

How the values were obtained:
[1] = system: T1, porcine trypsin; experiment: Insulin digestion by trypsin in solution, buffer screening (Table 9); type: biochemical; conditions: for Digested / Peptide / Undigested: 37°C, 18 h; for trypsin digestion: high concentrations, as high as 500 mM
T1 construct: purchased

[2] = system: trypsin; experiment: Human IgG digestion in response to calcium concentration (Table 11); type: biochemical, porcine; conditions: CaCl2 above 1 mM
[3] = system: trypsin; experiment: Insulin digestion in immobilized enzyme reactor, buffer screening (Table 7); type: biochemical, porcine; conditions: IMER; for Digested / Peptide / Undigested: 70°C, 60 s; for digestion efficiency: CaCl2 as high as 500 mM
[4] = Plasma digestion with buffer/additive combinations, aggregation; type: physicochemical, beagle; conditions: 100mM CaCl2, 90 minutes
[5] = Aggregate formation on digestion at high protein loads; type: physicochemical, monkey; conditions: 10% final concentration with 500 mM CaCl2
[6] = Aggregation of BSA in IMER, ammonium acetate, 5mM CaCl2, 5% glycerol (Table 34); type: physicochemical; conditions: 5% and 10% (Tables 34 and 35), 50mM ammonium acetate, 5mM CaCl2, 70°C
[7] = system: BSA; experiment: Screen of additives for prevention of aggregation (Table 5); type: physicochemical, bovine; conditions: 12.5 mg/mL BSA, 70°C, four columns in printed order, heads missing
[8] = Aggregation of BSA in IMER, ammonium acetate, 5mM CaCl2, 0.1% octylglucoside (Table 33); type: physicochemical; conditions: 0.1% in 50mM ammonium acetate, 5mM CaCl2, 70°C
[9] = system: T1, porcine trypsin; experiment: Comparing digestion buffers, solution digestion of insulin; type: biochemical; conditions: 37°C, 18 hours, versus tris buffer containing calcium chloride

Structure (SMILES): [Ca+2].[Cl-].[Cl-] [CaCl2, calcium chloride]
Digested ([1]; 0.05M): 2007752 | Peptide ([1]; 0.05M): 860714 | Undigested ([1]; 0.05M): 2746822 | Digested ([1]; 0.1M): 2377399 | Peptide ([1]; 0.1M): 1074482 | Undigested ([1]; 0.1M): 2139571 | Digested ([1]; 0.25M): 3241428 | Peptide ([1]; 0.25M): 1430859 | Undigested ([1]; 0.25M): 2885626 | Digested ([1]; 0.5M): 3340960 | Peptide ([1]; 0.5M): 1474912 | Undigested ([1]; 0.5M): 856015 | Digested ([1]; 1M): 3203158 | Peptide ([1]; 1M): 1344334 | Undigested ([1]; 1M): 949033 | trypsin digestion [1]: An increase in digestion was observed | trypsin digestion ([1]; listed as calcium chloride): dramatically improve trypsin digestion | enzyme efficiency [2]: increase enzyme efficiency | Digested ([3]; 0.05M): 2725600 | Peptide ([3]; 0.05M): 1172085 | Undigested ([3]; 0.05M): 802494 | Digested ([3]; 0.1M): 2844924 | Peptide ([3]; 0.1M): 1221898 | Undigested ([3]; 0.1M): 609138 | Digested ([3]; 0.25M): 2950068 | Peptide ([3]; 0.25M): 1264212 | Undigested ([3]; 0.25M): 571246 | Digested ([3]; 0.5M): 3031625 | Peptide ([3]; 0.5M): 1290650 | Undigested ([3]; 0.5M): 234332 | Digested ([3]; 1M): 3066738 | Peptide ([3]; 1M): 1263872 | Undigested ([3]; 1M): 16129 | digestion efficiency [3]: An increase in digestion was observed | digestion efficiency ([3]; listed as calcium chloride): digestion efficiency increased dramatically

aggregation ([4]; 10% in 50mM TBS): no aggregation | formation of aggregates [5]: prevented the formation of aggregates | Digested ([3]; 5%): 2051870 | Peptide ([3]; 5%): 828171 | Undigested ([3]; 5%): 2217803 | Digested ([3]; 10%): 1779261 | Peptide ([3]; 10%): 697488 | Undigested ([3]; 10%): 2432362 | Digested ([3]; 20%): 1167862 | Peptide ([3]; 20%): 445736 | Undigested ([3]; 20%): 3174668 | aggregation ([7]; 5%): Ν | aggregation ([7]; 10%): Ν
Structure (SMILES): OCC(O)CO [Glycerol]
Digested ([1]; 5%): 1007768 | Peptide ([1]; 5%): 432166 | Undigested ([1]; 5%): 3685707 | Digested ([1]; 10%): 833521 | Peptide ([1]; 10%): 353626 | Undigested ([1]; 10%): 4404492 | Digested ([1]; 20%): 654553 | Peptide ([1]; 20%): 275165 | Undigested ([1]; 20%): 5163829 | digestion efficiency ([1]; lower to moderate concentrations): does not significantly, negatively impact digestion efficiency | sample solubility and aggregation [6]: enhances sample solubility and prevents aggregation

aggregation ([4]; 0.1% in 50mM TBS): significant aggregation | Digested ([3]; 0.05%): 2394275 | Peptide ([3]; 0.05%): 958775 | Undigested ([3]; 0.05%): 1730676 | Digested ([3]; 0.1%): 2255277 | Peptide ([3]; 0.1%): 891922 | Undigested ([3]; 0.1%): 2114234 | Digested ([3]; 0.15%): 2430665 | Peptide ([3]; 0.15%): 942341 | Undigested ([3]; 0.15%): 2160281 | Digested ([3]; 0.2%): 2255277 | Peptide ([3]; 0.2%): 891922 | Undigested ([3]; 0.2%): 2114234 | aggregation ([7]; additive concentration not given): Ν
Structure (SMILES): CCCCCCCCO[C@@H]1O[C@H](CO)[C@@H](O)[C@H](O)[C@H]1O [OGS, octylglucoside]
sample solubility and aggregation [8]: enhances sample solubility and prevents aggregation | Digested ([1]; 0.05%): 1424601 | Peptide ([1]; 0.05%): 581489 | Undigested ([1]; 0.05%): 3798587 | Digested ([1]; 0.1%): 1616907 | Peptide ([1]; 0.1%): 675287 | Undigested ([1]; 0.1%): 4128179 | Digested ([1]; 0.15%): 1538290 | Peptide ([1]; 0.15%): 636117 | Undigested ([1]; 0.15%): 3751677 | Digested ([1]; 0.2%): 1574071 | Peptide ([1]; 0.2%): 619589 | Undigested ([1]; 0.2%): 3732438

enzyme activity [9]: significantly higher
Structure (SMILES): N.O=C(O)O [ammonium bicarbonate]
